Data from ChEMBL document CHEMBL4261623, “Synthesis, computational studies and antiproliferative activities of coumarin-tagged 1,3,4-oxadiazole conjugates against MDA-MB-231 and MCF-7 human breast cancer cells” (Bioorg Med Chem, 2018).

Key:
[1] = test system: MCF7; assay: Antiproliferative activity against human MCF7 cells after 24 hrs by MTT assay; format: functional, cell-based; conditions: MCF7, 24 h
[2] = test system: MDA-MB-231; assay: Antiproliferative activity against human MDA-MB-231 cells after 24 hrs by MTT assay; format: functional, cell-based; conditions: MDA-MB-231, 24 h
[3] = test system: MDA-MB-231; assay: Potency index, ratio of tamoxifen IC50 to compound IC50 for antiproliferative activity against human MDA-MB-231 cells; format: functional
[4] = test system: MCF7; assay: Potency index, ratio of tamoxifen IC50 to compound IC50 for antiproliferative activity against human MCF7 cells; format: functional

IC50 [1]	IC50 [2]	SMILES	Ratio IC50 [3]	Ratio IC50 [4]
7.09 µM	47.1 µM	CC/C(=C(\c1ccccc1)c1ccc(OCCN(C)C)cc1)c1ccccc1 [TAMOXIFEN]	–	–
> 100 µM	> 100 µM	CCCCCCS(=O)(=O)c1nnc(COc2cc(C)c3c(C)cc(=O)oc3c2)o1	–	–
> 100 µM	> 100 µM	CCS(=O)(=O)c1nnc(COc2cc(C)c3c(C)cc(=O)oc3c2)o1	–	–
26 µM	> 100 µM	Cc1cc(OCc2nnc(SCc3cccc(F)c3)o2)cc2oc(=O)cc(C)c12	–	–
38.6 µM	7.07 µM	Cc1cc(OCc2nnc(S(=O)(=O)Cc3ccccc3)o2)cc2oc(=O)cc(C)c12	7	–
55.2 µM	31.6 µM	Cc1cc(OCc2nnc(S(=O)(=O)Cc3ccc(F)c(F)c3)o2)cc2oc(=O)cc(C)c12	–	–
< 5 µM	> 100 µM	Cc1cc(OCc2nnc(SCc3ccc(Cl)cc3Cl)o2)cc2oc(=O)cc(C)c12	–	1.4
> 100 µM	> 100 µM	CCSc1nnc(COc2cc(C)c3c(C)cc(=O)oc3c2)o1	–	–
> 100 µM	> 100 µM	CCCCCSc1nnc(COc2cc(C)c3c(C)cc(=O)oc3c2)o1	–	–

Second part, the compound before the results:

SMILES	IC50 [1]	IC50 [2]	Ratio IC50 [3]	Ratio IC50 [4]
CCCCCCSc1nnc(COc2cc(C)c3c(C)cc(=O)oc3c2)o1	> 100 µM	> 100 µM	–	–
Cc1cc(OCc2nnc(S(=O)(=O)Cc3cccc(F)c3)o2)cc2oc(=O)cc(C)c12	70.4 µM	21.3 µM	–	–
Cc1cc(OCc2nnc(SCc3ccc(F)c(F)c3)o2)cc2oc(=O)cc(C)c12	33.3 µM	> 100 µM	–	–
CCCCSc1nnc(COc2cc(C)c3c(C)cc(=O)oc3c2)o1	> 100 µM	> 100 µM	–	–
CSc1nnc(COc2cc(C)c3c(C)cc(=O)oc3c2)o1	> 100 µM	> 100 µM	–	–
CCCS(=O)(=O)c1nnc(COc2cc(C)c3c(C)cc(=O)oc3c2)o1	> 100 µM	7.07 µM	7	–
CCCSc1nnc(COc2cc(C)c3c(C)cc(=O)oc3c2)o1	> 100 µM	> 100 µM	–	–
Cc1cc(OCc2nnc(SCc3ccccc3)o2)cc2oc(=O)cc(C)c12	> 100 µM	> 100 µM	–	–
